Tests used:
[1] = tested on: human dermal fibroblasts; experiment: MTT cell viability assay, normal dermal fibroblasts; assay type: cell-based; details: 48 h, noncancerous human dermal fibroblasts
Method: (§1) To evaluate the effect of the examined series on the viability of different lung cancer cells, MTT assay was conducted after exposing A549, H1299, and H661 cell lines to increasing concentrations of each compound for 48 h. […] Table 2 and Supplementary Figure S92 (see Supplementary Materials) show the 50% inhibitory concentration (IC50) values for the compounds under investigation in A549, H1299, and H661 lung cancer cells.
(§2) The human lung cancer cell lines A549, H1299 and H661 and the normal cells dermal fibroblasts were obtained from the American Type Culture Collection ATCC. Cells were cultured as a monolayer at seeding density of 8 × 10^3 cells per well in high glucose Dulbecco’s modified eagle medium (DMEM) (Invitrogen, USA), as previously described. The in vitro assessment of the antitumorigenic activities related to the studied compounds was undertaken using the 3-(4,5-dimethylthiazol-2yl)-2,5-diphenyl tetrazolium bromide (MTT) colorimetric assay, as previously reported. The compounds under investigation were tested in three triplicates of each concentration in three independent assays for a total of nine replicates. Both positive (cisplatin) and negative (untreated culture) controls were applied under the same experimental conditions. Cells were cultured for 48 h at 37 °C in a 5% CO2 incubator. Afterwards, MTT assay was carried out where viable cell count was determined based on the amount of formazan crystals, as verified by the absorbance at 490 nm.
(§3) Data was analyzed by Graphpad Prism software (Graphpad Software Inc. Jolla, CA, USA) for the determination of IC50 value. All data were expressed as the average of triplicate experiments.

[2] = tested on: A549 cells; experiment: Wound healing (migration) assay; assay type: cell-based; details: Homo sapiens, A549, 24 h, A549, 10 µM, read-out: % inhibition of wound closure
Method: The wound healing assay was performed in A549 cells to evaluate the effect of the synthesized series on lung cancer cell migration, as shown in Table 3. The wound of the control sample was completely closed after 24 h. […] Cell migration was inhibited after 24 h of treatment with compounds 22 or 23 compared to untreated control cells.
A549 cells were seeded in inserts (Ibidi GmbH, Gräfelfing, Germany) at concentration of 30,000 per insert in 70 μL medium and incubated for 24 h. Afterward, inserts were removed and cells incubated with 10 μg/mL of mitomycin C for 2 h to stop cell proliferation. The medium was removed, and cells were washed three times then cells were treated with 10 µM concentration of the examined compound. Images were captured at 24 h using BOECO microscope coupled with 5.0 Mega Cmos camera at 4× magnification. Digital images were taken using ISCapture software and wound width was measured using MIPAR software (MIPAR, Worthington, OH, USA).

[3] = tested on: A549 cells; experiment: Colony formation in soft agar assay; assay type: cell-based, human; set-up: Average Colony Size: unit not given here; details: day 12
Method: To investigate the effect of treatment with either potent compound 22 or 23 at two different concentrations (5 and 10 µM) on the colony-forming capability of lung cancer cells, A549 cells were treated with either concentration for 24 h. Afterwards, cells were grown on soft agar.
To carry out the soft agar assay, a bottom agar film of 1% (w/v) was prepared by mixing autoclaved 1% (w/v) agar solution with 2× DMEM medium in a 1:1 ratio and allowed to solidify at room temperature. A mixture of 1 × 10^4 of A549 cells treated with either compound NV7 (5 µM and 10 µM) or NV8 (5 µM and 10 µM) and 0.6% (w/v) agar solution was prepared in 1:1 ratio and poured on top of the bottom layer and left to solidify. Plate was incubated for 2 weeks. Photos were captured after 12 days using EVOS XL Core imaging system (Invitrogen, Waltham, MA, USA).

[4] = tested on: H661 lung cancer cells; experiment: MTT cell viability assay, H661; assay type: cell-based, human; details: mean of three independent experiments (N = 9)
Method: as §1, §2, §3

[5] = tested on: A549 lung cancer cells; experiment: MTT cell viability assay, A549; assay type: cell-based, human; details: mean of three independent experiments (N = 9)
Method: as §1, §2, §3

[6] = tested on: H1299 lung cancer cells; experiment: MTT cell viability assay, H1299; assay type: cell-based, human; details: mean of three independent experiments (N = 9)
Method: as §1, §2, §3

CCCCCCCCCC[n+]1ccc(C(=O)NN=Cc2ccc[n+](CCCCCCCCCC)c2)cc1.F[B-](F)(F)F.F[B-](F)(F)F [Compound 23, 1-Decyl-3-((2-(1-decylpyridin-1-ium-4-carbonyl)hydrazono)methyl)pyridin-1-ium Tetrafluoroborate]
IC50 ([1]; Homo sapiens, Fibroblast): > 300 µM | inhibition at 10 µM [2]: 67.1% | Average Colony Count ([3]; 5 µM): 135 | Average Colony Size ([3]; 5 µM): 43771 | Average Colony Count ([3]; 10 µM): 45 | Average Colony Size ([3]; 10 µM): 16837 | IC50 ([4]; 48 h): 11.3 µM | IC50 ([5]; Homo sapiens, A549, 48 h): 13.5 µM | IC50 ([6]; Homo sapiens, NCI-H1299, 48 h): 10.8 µM

CCCCCCCCCC[n+]1ccc(C(=O)N/N=C/c2ccc[n+](CCCCCCCCCC)c2)cc1 [Compound 22, 1-Decyl-3-((2-(1-decylpyridin-1-ium-4-carbonyl)hydrazono)methyl)pyridin-1-ium Hexafluorophosphate]
IC50 ([1]; Homo sapiens, Fibroblast): > 300 µM | inhibition at 10 µM [2]: 67.6% | Average Colony Count ([3]; 5 µM): 210 | Average Colony Size ([3]; 5 µM): 16356 | Average Colony Count ([3]; 10 µM): 98 | Average Colony Size ([3]; 10 µM): 11159 | IC50 ([4]; Homo sapiens, NCI-H661, 48 h): 25.6 µM | IC50 ([5]; Homo sapiens, A549, 48 h): 23.5 µM | IC50 ([6]; Homo sapiens, NCI-H1299, 48 h): 29.1 µM

CCCCCCCCC[n+]1ccc(C(=O)NN=Cc2ccc[n+](CCCCCCCCC)c2)cc1.[I-].[I-] [Compound 10, 1-Nonyl-3-((2-(1-nonylpyridin-1-ium-4-carbonyl)hydrazono)methyl)pyridin-1-ium Iodide]
IC50 [1]: > 300 µM | IC50 ([4]; 48 h): 60.1 µM | IC50 ([5]; 48 h): 55.6 µM | IC50 ([6]; 48 h): 63.1 µM | melting point: 76 to 78 °C

CCCCCCCCCCCCCCCCCC[n+]1ccc(C(=O)NN=Cc2ccc[n+](CCCCCCCCCCCCCCCCCC)c2)cc1.[I-].[I-] [Compound 15, 1-Octadecyl-3-((2-(1-octadecylpyridin-1-ium-4-carbonyl)hydrazono)methyl)pyridin-1-ium Iodide]
IC50 [1]: > 300 µM | IC50 ([4]; 48 h): 26.1 µM | IC50 ([5]; 48 h): 26.2 µM | IC50 ([6]; 48 h): 22.1 µM | melting point: 192 to 193 °C
